Experimental data published in patent US9944639B2, “Quinolizinone derivatives as PI3K inhibitors” (Lupin Limited, priority 2014, dated 2018).

The compounds below were run against T1, PI3Kδ (Homo sapiens, UniProt O00329) (assay: Cell Based Assay for PI3Kδ (AKT phosphorylation, AlphaScreen SureFire, anti-IgM stimulated Raji cells)). Conditions: compounds 1 h, anti-IgM (3 μg/mL) 30 min, phosphorylation of AKT, read-out: PI3Kδ inhibition IC50.
T1 construct: endogenous in cells; host or cells: Raji cells
T1 sequence (O00329 whole entry): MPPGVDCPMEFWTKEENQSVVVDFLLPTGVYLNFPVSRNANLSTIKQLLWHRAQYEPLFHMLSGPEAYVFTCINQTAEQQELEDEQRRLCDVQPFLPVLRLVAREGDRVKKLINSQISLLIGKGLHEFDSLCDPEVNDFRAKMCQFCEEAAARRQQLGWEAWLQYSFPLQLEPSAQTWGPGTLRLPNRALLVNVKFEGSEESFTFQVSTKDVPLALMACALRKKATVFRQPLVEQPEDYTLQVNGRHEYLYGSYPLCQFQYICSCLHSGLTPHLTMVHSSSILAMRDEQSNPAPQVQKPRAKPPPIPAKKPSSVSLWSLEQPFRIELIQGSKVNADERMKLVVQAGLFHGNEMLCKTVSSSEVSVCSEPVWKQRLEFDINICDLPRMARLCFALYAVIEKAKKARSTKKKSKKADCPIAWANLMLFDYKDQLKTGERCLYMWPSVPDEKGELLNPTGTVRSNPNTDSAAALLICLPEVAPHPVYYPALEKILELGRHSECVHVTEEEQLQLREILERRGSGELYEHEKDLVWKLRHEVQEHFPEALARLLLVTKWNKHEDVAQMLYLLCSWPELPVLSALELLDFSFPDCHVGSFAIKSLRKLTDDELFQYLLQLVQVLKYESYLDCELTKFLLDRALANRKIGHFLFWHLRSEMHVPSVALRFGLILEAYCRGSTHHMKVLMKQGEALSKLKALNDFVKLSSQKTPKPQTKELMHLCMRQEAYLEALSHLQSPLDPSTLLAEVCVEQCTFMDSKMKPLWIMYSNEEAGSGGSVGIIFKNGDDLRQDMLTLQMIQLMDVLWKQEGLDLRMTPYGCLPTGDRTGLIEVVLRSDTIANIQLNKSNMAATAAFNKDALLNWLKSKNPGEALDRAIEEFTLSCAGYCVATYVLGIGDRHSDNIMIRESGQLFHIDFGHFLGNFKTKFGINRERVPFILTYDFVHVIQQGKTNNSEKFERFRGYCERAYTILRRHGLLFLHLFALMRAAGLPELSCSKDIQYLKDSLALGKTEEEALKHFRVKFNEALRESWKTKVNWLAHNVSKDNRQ
T1 sequence (P27986 whole entry partner): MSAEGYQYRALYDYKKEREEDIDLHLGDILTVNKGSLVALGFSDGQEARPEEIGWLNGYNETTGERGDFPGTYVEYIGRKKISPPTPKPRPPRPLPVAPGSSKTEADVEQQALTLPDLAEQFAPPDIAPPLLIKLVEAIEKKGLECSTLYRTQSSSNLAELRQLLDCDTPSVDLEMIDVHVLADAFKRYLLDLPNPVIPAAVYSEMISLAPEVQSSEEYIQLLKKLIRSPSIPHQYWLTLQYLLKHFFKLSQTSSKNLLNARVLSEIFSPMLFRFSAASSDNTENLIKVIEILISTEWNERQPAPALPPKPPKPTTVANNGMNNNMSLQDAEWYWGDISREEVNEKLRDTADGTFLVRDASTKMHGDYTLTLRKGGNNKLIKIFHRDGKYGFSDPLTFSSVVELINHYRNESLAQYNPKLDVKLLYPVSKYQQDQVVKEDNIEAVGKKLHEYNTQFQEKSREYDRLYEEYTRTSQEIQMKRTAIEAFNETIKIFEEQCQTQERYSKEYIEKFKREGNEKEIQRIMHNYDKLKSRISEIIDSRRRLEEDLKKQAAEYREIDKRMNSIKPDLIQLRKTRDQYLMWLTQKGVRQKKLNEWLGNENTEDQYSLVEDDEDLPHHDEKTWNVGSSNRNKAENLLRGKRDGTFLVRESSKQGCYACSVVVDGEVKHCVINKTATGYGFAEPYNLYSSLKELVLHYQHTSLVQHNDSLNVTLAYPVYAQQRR
Protocol: [formula] C) Cell Based Assay for PI3Kδ
Raji cells were maintained in RPMI-1640 (Sigma) supplemented with 10% fetal bovine serum (heat inactivated) (FBS, Sigma), 100 U penicillin/mL, and […] streptomycin and incubated at 37° C. and 5% CO2. Cells were centrifuged and resuspended in a complete medium. The required numbers of cells were transferred to a tissue culture flask containing medium without serum for 1 h at 37° C., 5% CO2. Following 1 h serum starvation, cells were centrifuged and resuspended in Hank's Balanced Salt Solution (HBSS, Sigma) and seeded in at a density of 1 million cells/well in 96-well clear bottom plates. The cells were treated with test compounds for 1 h at 37° C., 5% CO2. Cells were then stimulated with anti-IgM (3 μg/mL) for 30 min. After Stimulation, cells were lysed with 15 μL of 5× lysis buffer and the plate was shaken on an orbital plate shaker at approximately 300 rpm for 10 min. AlphaScreen® SureFire® Cell-based Assay (Perkin-Elmer, Waltham, Mass., USA) was performed to measure phosphorylation of AKT, in the cells according to the manufacturer's instructions. The luminescence was measured using an alpha technology-compatible plate reader BMG Labtech, Germany) at 520-620 nm. Percentage inhibition was calculated according to formula: […]
IC50 values were calculated by plotting % inhibition against the respective concentrations of test compounds using GraphPad Prism 5.

| SMILES | IC50 [nM] |
| --- | --- |
| CC(c1cc2ccc(F)cn2c(=O)c1-c1ccccc1)n1nc(-c2ccc3c(c2)CC(=O)N3)c2c(N)ncnc21 (centres unmarked) [Compound 65, 2-(1-(4-amino-3-(2-oxoindolin-5-yl)-1H-pyrazolo[3,4-d]pyrimidin-1-yl)ethyl)-7-fluoro-3-phenyl-4H-quinolizin-4-one] | 51 to 250 |
| C[C@H](Nc1nc(N)nc2[nH]cnc12)c1cc2ccc(F)cn2c(=O)c1-c1cccc(F)c1 (single isomer, unassigned) [Compound 15a, 2-(1-((2-Amino-9H-purin-6-yl)amino)ethyl)-7-fluoro-3-(3-fluorophenyl)-4H-quinolizin-4-one] | 11 to 50 |
| C[C@H](Nc1ncnc(N)c1C#N)c1cc2ccc(F)cn2c(=O)c1-c1cccc(OC(F)(F)F)c1 [Compound 34, (S)-4-amino-6-((1-(7-fluoro-4-oxo-3-(3-(trifluoromethoxy)phenyl)-4H-quinolizin-2-yl)ethyl)amino)pyrimidine-5-carbonitrile] | 11 to 50 |
| C[C@H](Nc1ncnc(N)c1C#N)c1cc2ccc(F)cn2c(=O)c1-c1ccccc1 (single isomer, unassigned) [Compound 14a] | 11 to 50 |
| C[C@H](Nc1ncnc(N)c1C#N)c1cc2ccc(F)cn2c(=O)c1-c1ccc(F)cc1 [Compound 36, (S)-4-amino-6-((1-(7-fluoro-3-(4-fluorophenyl)-4-oxo-4H-quinolizin-2-yl)ethyl)amino)pyrimidine-5-carbonitrile] | 11 to 50 |
| Cc1cccc(-c2c([C@H](C)Nc3ncnc(N)c3C#N)cc3ccc(F)cn3c2=O)c1 [Compound 31, (S)-4-amino-6-((1-(7-fluoro-4-oxo-3-(m-tolyl)-4H-quinolizin-2-yl)ethyl)amino)pyrimidine-5-carbonitrile] | 11 to 50 |
| C[C@H](Nc1nc(N)nc2[nH]cnc12)c1cc2ccc(F)cn2c(=O)c1-c1cc(F)cc(F)c1 [Compound 51, (S)-2-(1-((2-amino-9H-purin-6-yl)amino)ethyl)-3-(3,5-difluorophenyl)-7-fluoro-4H-quinolizin-4-one] | 11 to 50 |
| CC[C@H](Nc1ncnc(N)c1C#N)c1cc2ccc(F)cn2c(=O)c1-c1cccc(F)c1 (single isomer, unassigned) [Compound 44a, 4-Amino-6-((1-(7-fluoro-3-(3-fluorophenyl)-4-oxo-4H-quinolizin-2-yl)propyl)amino)pyrimidine-5-carbonitrile] | 11 to 50 |
| C[C@H](Nc1ncnc(N)c1C#N)c1cc2ccccn2c(=O)c1-c1ccccc1 (single isomer, unassigned) [Compound 4a, 4-Amino-6-((1-(4-oxo-3-phenyl-4H-quinolizin-2-yl)ethyl)amino)pyrimidine-5-carbonitrile] | 11 to 50 |
| C[C@@H](c1cc2ccc(F)cn2c(=O)c1-c1ccccc1)n1nc(-c2cc(F)cc(NS(C)(=O)=O)c2)c2c(N)ncnc21 (single isomer, unassigned) [Compound 58a, N-(3-(4-amino-1-(1-(7-fluoro-4-oxo-3-phenyl-4H-quinolizin-2-yl)ethyl)-1H-pyrazolo[3,4-d]pyrimidin-3-yl)-5-fluorophenyl)methanesulfonamide] | 11 to 50 |

Stronger by IC50, values ahead:

| IC50 [nM] | SMILES |
| --- | --- |
| 0.1 to 10 | Cc1cccc2cc([C@H](C)Nc3ncnc(N)c3C#N)c(-c3cccc(F)c3)c(=O)n12 (single isomer, unassigned) [Compound 10a, 4-Amino-6-((1-(3-(3-fluorophenyl)-6-methyl-4-oxo-4H-quinolizin-2-yl)ethyl)amino)pyrimidine-5-carbonitrile] |
| 0.1 to 10 | CC(c1cc2ccc(F)cn2c(=O)c1-c1ccccc1)n1nc(-c2cccc(O)c2)c2c(N)ncnc21 (centres unmarked) [Compound 62, 2-(1-(4-amino-3-(3-hydroxyphenyl)-1H-pyrazolo[3,4-d]pyrimidin-1-yl)ethyl)-7-fluoro-3-phenyl-4H-quinolizin-4-one] |
| 0.1 to 10 | C[C@H](Nc1ncnc2[nH]cc(C#N)c12)c1cc2ccc(F)cn2c(=O)c1-c1ccccc1 [Compound 28, (S)-4-((1-(7-fluoro-4-oxo-3-phenyl-4H-quinolizin-2-yl)ethyl)amino)-7H-pyrrolo[2,3-d]pyrimidine-5-carbonitrile] |
| 0.1 to 10 | CC[C@H](Nc1nc(N)nc(N)c1C#N)c1cc2ccc(F)cn2c(=O)c1-c1cccc(F)c1 (single isomer, unassigned) [Compound 45a, 2,4-diamino-6-((1-(7-fluoro-3-(3-fluorophenyl)-4-oxo-4H-quinolizin-2-yl)propyl)amino)pyrimidine-5-carbonitrile] |
| 0.1 to 10 | C[C@H](Nc1ncnc2[nH]cc(F)c12)c1cc2ccc(F)cn2c(=O)c1-c1ccccc1 [Compound 40, (S)-7-fluoro-2-(1-((5-fluoro-7H-pyrrolo[2,3-d]pyrimidin-4-yl)amino)ethyl)-3-phenyl-4H-quinolizin-4-one] |
| 0.1 to 10 | CC(c1cc2ccc(F)cn2c(=O)c1-c1ccccc1)n1cc(-c2cc(O)cc(F)c2)c2c(N)ncnc21 (centres unmarked) [Compound 63, 2-(1-(4-amino-5-(3-fluoro-5-hydroxyphenyl)-7H-pyrrolo[2,3-d]pyrimidin-7-yl)ethyl)-7-fluoro-3-phenyl-4H-quinolizin-4-one] |
| 0.1 to 10 | Cc1cccc2cc([C@H](C)Nc3nc(N)nc4[nH]cnc34)c(-c3ccccc3)c(=O)n12 (single isomer, unassigned) [Compound 8a, 2-(1-((2-Amino-9H-purin-6-yl)amino)ethyl)-6-methyl-3-phenyl-4H-quinolizin-4-one] |
| 0.1 to 10 | C[C@H](Nc1ncnc2scnc12)c1cc2ccc(F)cn2c(=O)c1-c1ccccc1 [Compound 52, (S)-7-fluoro-3-phenyl-2-(1-(thiazolo[5,4-d]pyrimidin-7-ylamino)ethyl)-4H-quinolizin-4-one] |
| 0.1 to 10 | Cc1cccc2cc([C@H](C)Nc3nc(F)nc4[nH]cnc34)c(-c3ccccc3)c(=O)n12 (single isomer, unassigned) [Compound 9a, 2-(1-((2-Fluoro-9H-purin-6-yl)amino)ethyl)-6-methyl-3-phenyl-4H-quinolizin-4-one] |
| 0.1 to 10 | C[C@H](Nc1ncnc(N)c1C#N)c1cc2ccccn2c(=O)c1-c1cccc(F)c1 (single isomer, unassigned) [Compound 6a, 4-Amino-6-((1-(3-(3-fluorophenyl)-4-oxo-4H-quinolizin-2-yl)ethyl)amino)-pyrimidine-5-carbonitrile] |
| 0.1 to 10 | Cc1cccc2cc([C@H](C)Nc3ncnc(N)c3C#N)c(-c3cc(F)cc(F)c3)c(=O)n12 (single isomer, unassigned) [Compound 17a, 4-Amino-6-((1-(3-(3,5-difluorophenyl)-6-methyl-4-oxo-4H-quinolizin-2-yl)ethyl)amino)pyrimidine-5-carbonitrile] |
| 0.1 to 10 | C[C@H](Nc1nc(N)nc(Cl)c1C#N)c1cc2ccc(F)cn2c(=O)c1-c1ccccc1 [Compound 53, (S)-2-amino-4-chloro-6-((1-(7-fluoro-4-oxo-3-phenyl-4H-quinolizin-2-yl)ethyl)amino)pyrimidine-5-carbonitrile] |
| 0.1 to 10 | COc1ncc(-c2nn([C@@H](C)c3cc4ccc(F)cn4c(=O)c3-c3ccccc3)c3ncnc(N)c23)cc1NS(C)(=O)=O (single isomer, unassigned) [Compound 67a, N-(5-(4-amino-1-(1-(7-fluoro-4-oxo-3-phenyl-4H-quinolizin-2-yl)ethyl)-1H-pyrazolo[3,4-d]pyrimidin-3-yl)-2-methoxypyridin-3-yl)methanesulfonamide] |
